According to US12180207B2 (ARRAY BIOPHARMA INC., priority 2018, dated 2024):

How the values were obtained:
[1] = target: recombinant human FGFR3 (amino acids R397-T806) (Homo sapiens (Human), UniProt P22607); assay: FGFR3 enzyme activity assay (LanthaScreen TR-FRET); assay type: biochemical; conditions: 25 μM ATP, 10 min incubation at 22° C., average of multiple determinations if made, read-out: FGFR3 Enz FRET IC50
Method: FGFR3 kinase activity was measured by the Invitrogen LanthaScreen™ Assay technology which directly measures the amount of substrate phosphorylation by TR-FRET using a fluorescently-labeled peptide and Europium-labeled antibody. Briefly, […] N-terminal GST-HIS6 fusion protein with a 3C cleavage site recombinant human FGFR3 (amino acids R397-T806) (ProQinase Cat. No. 1068-0000-1) was incubated with 100 nM Alexa Fluor® 647-Poly-GT Peptide Substrate (Life Technologies Cat. No. PV5836) and 25 μM ATP along with test compound in a buffer consisting of 250 mM HEPES, 25 mM MgCl2, 0.05% TritonX-100, pH 7.5, and 2% DMSO. […] After a 10 minute incubation at 22° C., an equal volume of 2 nM LanthaScreen® Eu-PY20 Antibody (Life Technologies Cat. No. PV5691) and 10 mM EDTA were added to quench the kinase reaction and start the detection reaction. After an additional 60 minute incubation at 22° C., the reaction was measured using a PerkinElmer EnVision multimode plate reader via TR-FRET dual wavelength detection, and the percent of control (POC) calculated using a ratiometric emission factor. 100 POC was determined using no test compounds and 0 POC was determined using no enzyme. The POC values were fit to a 4-parameter logistic curve as a function of the concentration of the compound, and the IC50 value is the point where the curve crosses 50 POC.

[2] = target: FGFR3 (SEQ ID NO: 5, amino acids 449-759) (Homo sapiens (Human), UniProt P22607); assay: LC/MS FGFR3 kobs assay (covalent protein modification); assay type: binding; conditions: 500 nM FGFR3, 3 μM compound
Method: The LC/MS FGFR1 and FGFR3 kobs assays were conducted as follows. […] At each time point, the reaction was quenched with 20 μL of 0.4% formic acid. The extent of protein modification by each compound was determined by LC/MS on an Agilent Technologies 6520 Q-TOF LC/MS. Protein signals were then automatically deconvoluted using Agilent Masshunter software. Deconvoluted mass signals were exported to Tibco Spotfire data analysis program for further processing and normalization.
Data analysis included five steps. First, the signals for the “DMSO Controls” were analyzed to determine the percent of signal associated with unmodified FGFR1 or FGFR3 at each time point. Next, the percent of the signal associated with the covalent modification was determined. Third, the average nonmodified “DMSO Control” signal was used to normalize the modified protein signals at each time point. The percent of unmodified protein was fit to an exponential decay model where A0 is the Percent Unmodified at the start of the reaction, and kobs is the observed rate constant over the time period.
Table EC contains kobs values for compounds tested in these assays, presented as the average of multiple determinations if multiple determinations were made. ND=not determined.

[3] = target: recombinant human FGFR2 cytoplasmic domain (amino acids 403-822) (Homo sapiens (Human), UniProt P21802); assay: FGFR2 enzyme activity assay (LanthaScreen TR-FRET); assay type: biochemical; conditions: 15 μM ATP, 20 min incubation at 22° C., average of multiple determinations if made, read-out: FGFR2 Enz FRET IC50
Method: FGFR2 kinase activity was measured by the Invitrogen LanthaScreen™ Assay technology which directly measures the amount of substrate phosphorylation by TR-FRET using a fluorescently-labeled peptide and Europium-labeled antibody. Briefly, […] His-tagged recombinant human FGFR2 cytoplasmic domain (amino acids 403-822) (Life Technologies Cat. No. PR5332A) was incubated with 100 nM Alexa Fluor® 647-Poly-GT Peptide Substrate (Life Technologies Cat. No. PV5836) and 15 μM ATP along with test compound in a buffer consisting of 250 mM HEPES, 25 mM MgCl2, 0.05% TritonX-100, pH 7.5, and 2% DMSO. […] After a 20 minute incubation at 22° C., an equal volume of 2 nM LanthaScreen® Eu-PY20 Antibody (Life Technologies Cat. No. PV5691) and 10 mM EDTA were added to quench the kinase reaction and start the detection reaction. After an additional 60 minute incubation at 22° C., the reaction was measured using a PerkinElmer EnVision multimode plate reader via TR-FRET dual wavelength detection, and the percent of control (POC) calculated using a ratiometric emission factor. 100 POC was determined using no test compounds and 0 POC was determined using no enzyme. The POC values were fit to a 4-parameter logistic curve as a function of the concentration of the compound, and the IC50 value is the point where the curve crosses 50 POC.

[4] = target: dephosphorylated FGFR1 (SEQ ID NO: 1, amino acids 458 to 765) (Homo sapiens (Human), UniProt P11362); assay: FGFR enzyme binding assay (HTRF tracer displacement), FGFR1; conditions: 5 nM dephosphorylated FGFR1, average of multiple determinations if made
Method: (§1) The potency of compounds inhibiting human isoforms of FGFR kinase was determined using Life Technologies' Homogeneous Time Resolved Fluorescence (HTRF)-based binding assay technology. […] After a 60 minute incubation at 22° C., the extent of tracer displacement was determined using a PerkinElmer EnVision multimode plate reader via HTRF dual wavelength detection, and the percent of control (POC) was calculated using a ratiometric emission factor. One hundred POC was determined using no test compound, and 0 POC was determined in the presence of 1 μM of an appropriate control inhibitor.

[5] = target: phosphorylated FGFR3 (SEQ ID NO: 5, amino acids 449 to 759) (Homo sapiens (Human), UniProt P22607); assay: FGFR enzyme binding assay (HTRF tracer displacement), FGFR3; conditions: 5 nM phosphorylated FGFR3, average of multiple determinations if made
Method: as §1

[6] = target: recombinant human FGFR1 catalytic domain (amino acids 308-731) (Homo sapiens (Human), UniProt P11362); assay: FGFR1 enzyme activity assay (LanthaScreen TR-FRET); assay type: biochemical; conditions: 20 min incubation at 22° C., average of multiple determinations if made, read-out: FGFR1 Enz FRET IC50
Method: FGFR1 kinase activity was measured by the Invitrogen LanthaScreen™ Assay technology which directly measures the amount of substrate phosphorylation by Time-resolved fluorescence energy transfer (TR-FRET) using a fluorescently-labeled peptide and Europium-labeled antibody. Briefly, […] His-tagged recombinant human FGFR1 catalytic domain (amino acids 308-731) (Life Technologies Cat. No. PR4660A) was incubated with 100 nM Alexa Fluor® 647-Poly-GT Peptide Substrate (Life Technologies Cat. No. PV5836) and […] ATP along with test compound in a buffer consisting of 250 mM HEPES, 25 mM MgCl2, 0.05% TritonX-100, pH 7.5, and 2% DMSO. […] After a 20 minutes incubation at 22° C., an equal volume of 2 nM LanthaScreen® Eu-PY20 Antibody (Life Technologies Cat. No. PV5691) and 10 mM EDTA was added to quench the kinase reaction and start the detection reaction. After an additional 60 minute incubation at 22° C., the reaction was measured using a PerkinElmer EnVision multimode plate reader via TR-FRET dual wavelength detection, and the percent of control (POC) calculated using a ratiometric emission factor. 100 POC was determined using no test compounds and 0 POC was determined using no enzyme. The POC values were fit to a 4-parameter logistic curve as a function of the concentration of the compound, and the IC50 value is the point where the curve crosses 50 POC.

Chain of dephosphorylated FGFR1 (SEQ ID NO: 1, amino acids 458 to 765) (P11362 458-765): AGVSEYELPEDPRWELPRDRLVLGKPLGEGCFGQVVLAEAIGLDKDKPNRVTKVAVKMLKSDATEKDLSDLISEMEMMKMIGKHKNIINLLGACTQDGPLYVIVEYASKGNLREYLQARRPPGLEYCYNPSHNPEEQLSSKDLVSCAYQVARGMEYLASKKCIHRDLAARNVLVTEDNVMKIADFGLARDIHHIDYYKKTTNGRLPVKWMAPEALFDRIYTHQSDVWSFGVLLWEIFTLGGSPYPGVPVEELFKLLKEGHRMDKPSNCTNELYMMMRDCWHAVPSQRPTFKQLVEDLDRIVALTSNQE
Chain of recombinant human FGFR3 (amino acids R397-T806) (P22607 397-806): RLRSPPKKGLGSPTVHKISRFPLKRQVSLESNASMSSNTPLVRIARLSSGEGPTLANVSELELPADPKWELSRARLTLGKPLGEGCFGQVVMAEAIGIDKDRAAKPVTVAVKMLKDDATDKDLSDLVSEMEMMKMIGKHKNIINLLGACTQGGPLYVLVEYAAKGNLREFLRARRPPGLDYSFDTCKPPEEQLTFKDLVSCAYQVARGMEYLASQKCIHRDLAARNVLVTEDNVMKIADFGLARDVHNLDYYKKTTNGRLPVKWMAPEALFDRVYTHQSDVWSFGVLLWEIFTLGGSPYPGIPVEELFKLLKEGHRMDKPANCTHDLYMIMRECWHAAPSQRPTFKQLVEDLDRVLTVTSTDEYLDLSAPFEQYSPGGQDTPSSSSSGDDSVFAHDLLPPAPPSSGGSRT
Chain of recombinant human FGFR1 catalytic domain (amino acids 308-731) (P11362 other isoform, or with tags, fused parts or gaps): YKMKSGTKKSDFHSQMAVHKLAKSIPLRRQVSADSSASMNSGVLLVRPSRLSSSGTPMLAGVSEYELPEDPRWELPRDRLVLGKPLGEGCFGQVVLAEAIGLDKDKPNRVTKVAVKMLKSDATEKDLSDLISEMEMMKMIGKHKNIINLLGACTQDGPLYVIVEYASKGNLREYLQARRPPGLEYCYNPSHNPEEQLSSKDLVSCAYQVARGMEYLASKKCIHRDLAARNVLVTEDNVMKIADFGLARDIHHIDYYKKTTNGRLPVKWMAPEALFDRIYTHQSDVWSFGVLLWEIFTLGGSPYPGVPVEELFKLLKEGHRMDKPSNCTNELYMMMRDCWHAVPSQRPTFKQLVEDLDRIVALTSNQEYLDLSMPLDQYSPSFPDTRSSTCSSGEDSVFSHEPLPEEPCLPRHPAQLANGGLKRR
Chain of phosphorylated FGFR3 (SEQ ID NO: 5, amino acids 449 to 759) (P22607 449-759): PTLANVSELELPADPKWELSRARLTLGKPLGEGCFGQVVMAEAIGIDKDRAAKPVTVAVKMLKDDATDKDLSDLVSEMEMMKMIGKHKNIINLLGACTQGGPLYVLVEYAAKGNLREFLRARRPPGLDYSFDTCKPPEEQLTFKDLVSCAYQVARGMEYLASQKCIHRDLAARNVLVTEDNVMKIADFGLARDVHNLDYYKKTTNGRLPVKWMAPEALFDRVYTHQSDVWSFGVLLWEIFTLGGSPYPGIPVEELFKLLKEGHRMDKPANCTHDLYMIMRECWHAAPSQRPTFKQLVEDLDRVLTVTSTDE
Chain of FGFR3 (SEQ ID NO: 5, amino acids 449-759) (P22607 449-759): as above
Chain of recombinant human FGFR2 cytoplasmic domain (amino acids 403-822) (P21802 402-821): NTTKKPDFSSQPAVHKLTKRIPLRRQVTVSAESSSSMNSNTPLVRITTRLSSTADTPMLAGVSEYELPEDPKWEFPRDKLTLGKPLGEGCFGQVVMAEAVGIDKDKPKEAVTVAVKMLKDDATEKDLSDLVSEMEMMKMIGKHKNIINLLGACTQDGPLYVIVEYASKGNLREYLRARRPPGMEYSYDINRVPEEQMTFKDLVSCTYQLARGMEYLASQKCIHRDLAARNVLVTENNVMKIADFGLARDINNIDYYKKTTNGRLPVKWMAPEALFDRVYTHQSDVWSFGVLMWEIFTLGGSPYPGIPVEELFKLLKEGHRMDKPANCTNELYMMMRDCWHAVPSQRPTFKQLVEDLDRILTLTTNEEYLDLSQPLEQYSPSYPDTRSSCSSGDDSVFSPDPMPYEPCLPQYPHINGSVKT

IC50 [1] [µM]	FGFR3 Enz kobs [2] [min⁻¹]	IC50 [3] [µM]	IC50 [4] [µM]	IC50 [5] [µM]	IC50 [6] [µM]	Structure (SMILES)
0.002	0.0004	0.004	0.131	0.026	0.018	C=CC(=O)N[C@H]1CC[C@H](C(=O)N2CCC(n3cc(-c4cc(OC)c5c(C#N)cnn5c4)cn3)CC2)CC1 [Example 18, N-((1r,4r)-4-(4-(4-(3-cyano-4-methoxypyrazolo[1,5-a]pyridin-6-yl)-1H-pyrazol-1-yl)piperidine-1-carbonyl)cyclohexyl)acryl-amide]
0.003	0.00051	0.003	0.093	0.018	0.014	C=CC(=O)N[C@H]1CC[C@@H](C(=O)N2CCC(n3cc(-c4cc(OC)c5c(C#N)cnn5c4)cn3)CC2)CC1 [Example 20, N-((1s,4s)-4-(4-(4-(3-cyano-4-methoxypyrazolo[1,5-a]pyridin-6-yl)-1H-pyrazol-1-yl)piperidine-1-carbonyl)cyclohexyl)acryl-amide]
0.058	0.0007	0.042	0.552	0.128	0.188	C=CC(=O)N1CCC(Oc2cccc(-n3cc(-c4cc(OC)c5c(C#N)cnn5c4)cn3)c2)CC1 [Example 26, 6-(1-(3-((1-acryloylpiperidin-4-yl)oxy)phenyl)-1H-pyrazol-4-yl)-4-methoxypyrazolo[1,5-a]pyridine-3-carbonitrile]
0.002	0.001	0.003	–	0.02	–	C=CC(=O)N[C@H]1C[C@@H](C(=O)N2CCC(n3cc(-c4cc(OC)c5c(C#N)cnn5c4)cn3)CC2)C1 [Example 44, N-((1s,3s)-3-(4-(4-(3-cyano-4-methoxypyrazolo[1,5-a]pyridin-6-yl)-1H-pyrazol-1-yl)piperidine-1-carbonyl)cyclobutyl)acryl-amide]
0.008	0.00116	0.009	–	0.044	–	C=CC(=O)N[C@H]1C[C@H](C(=O)N2CCC(n3cc(-c4cc(OC)c5c(C#N)cnn5c4)cn3)CC2)C1 [Example 45, N-((1r,3r)-3-(4-(4-(3-cyano-4-methoxypyrazolo[1,5-a]pyridin-6-yl)-1H-pyrazol-1-yl)piperidine-1-carbonyl)cyclobutyl)acryl-amide]
0.003	0.00153	0.002	0.023	0.004	0.012	C=CC(=O)NC1C2CC1C2C(=O)N1CCC(n2cc(-c3cc(OC)c4c(C#N)cnn4c3)cn2)CC1 (stereo not shown) [Example 46, N-(4-(4-(4-(3-cyano-4-methoxypyrazolo[1,5-a]pyridin-6-yl)-1H-pyrazol-1-yl)piperidine-1-carbonyl)bicyclo[1.1.1]pentan-2-yl)acrylamide]
0.003	0.00112	0.007	–	0.031	–	C=CC(=O)N1CCC(C(=O)N2CC[C@@H](n3cc(-c4cc(OC)c5c(C#N)cnn5c4)cn3)C2)CC1 [Example 53, (R)-6-(1-(1-(1-acryloylpiperidine-4-carbonyl)pyrrolidin-3-yl)-1H-pyrazol-4-yl)-4-methoxypyrazolo[1,5-a]pyridine-3-carbonitrile]
0.016	0.00025	0.016	0.142	0.025	0.047	C=CC(=O)N[C@H]1CC[C@H](C(=O)N2CC[C@@H](n3cc(-c4cc(OC)c5c(C#N)cnn5c4)cn3)C2)CC1 [Example 54, N-((1R,4r)-4-((R)-3-(4-(3-cyano-4-methoxypyrazolo[1,5-a]pyridin-6-yl)-1H-pyrazol-1-yl)pyrrolidine-1-carbonyl)cyclohexyl)acryl-amide]
0.007	0.00083	0.007	0.203	0.032	0.031	C=CC(=O)N[C@H]1C[C@H](C(=O)N2CC[C@@H](n3cc(-c4cc(OC)c5c(C#N)cnn5c4)cn3)C2)C1 [Example 60, N-((1R,3r)-3-((R)-3-(4-(3-cyano-4-methoxypyrazolo[1,5-a]pyridin-6-yl)-1H-pyrazol-1-yl)pyrrolidine-1-carbonyl)cyclobutyl)acryl-amide]
0.005	0.00064	0.006	0.346	0.061	0.028	C=CC(=O)N[C@H]1C[C@@H](C(=O)N2CC[C@@H](n3cc(-c4cc(OC)c5c(C#N)cnn5c4)cn3)C2)C1 [Example 61, N-((1S,3s)-3-((R)-3-(4-(3-cyano-4-methoxypyrazolo[1,5-a]pyridin-6-yl)-1H-pyrazol-1-yl)pyrrolidine-1-carbonyl)cyclobutyl)acryl-amide]
0.002	0.00106	0.005	–	0.064	–	C=CC(=O)N1CCC(C(=O)N2CC[C@H](n3cc(-c4cc(OC)c5c(C#N)cnn5c4)cn3)C2)CC1 [Example 62, (S)-6-(1-(1-(1-acryloylpiperidine-4-carbonyl)pyrrolidin-3-yl)-1H-pyrazol-4-yl)-4-methoxypyrazolo[1,5-a]pyridine-3-carbonitrile]
